Earlier results, collected in patent US9511030B2, “Controlled release particles” (priority 2011, dated 2016).

SMILES: C=C(C)C(=O)O [Methacrylic acid]
- water solubility: 8.9 mass %

SMILES: CCCC1COC(Cn2cncn2)(c2ccc(Cl)cc2Cl)O1 (centres unmarked) [Propiconazole, 1-[2-(2,4-dichlorophenyl)-4-n-propyl-1,3-dioxolane-2-ylmethyl]-1H-1,2,4-triazole]
- water solubility: 110 ppm
